Results on five molecules are retold here after patent US11485762B2, “Compositions and methods for inhibition of L-plastin activity in osteoclasts to reduce bone loss” (University of Maryland, Baltimore, priority 2017, dated 2022).

One assay deals with osteoclasts. Briefly: Podosome organization in osteoclasts (actin staining). Format: cell-based, mouse. Conditions: for formation of podosomes: sNT-LPL peptides; for actin modulation involved in podosome assembly/disassembly: TAT-fused LPL peptides. As to the method: Osteoclast precursors (10^5 cells/coverslips) were cultured on glass cover slips or dentine slices. Fluorescent labeling was done in osteoclasts transduced or untransduced with TAT-proteins. HA or TAT antibody was used to identify the transduced peptides of interest; rhodamine phalloidin was used to determine actin organization (Chellaiah et al., 2000, J. Cell Biol., 148: 665-678; Chellaiah et al., 2000, J. Biol. Chem., 275: 11993-12002). Immunostained and actin stained osteoclasts were photographed with a Bio-Rad confocal laser-scanning microscope. Images were stored in TIF image format and processed by Adobe Photoshop (Adobe Systems Inc., Mountain View. Calif.).
(§1) After cells were kept in the serum-free α-MEM medium for two hours, LPL peptides of interest were added to a final concentration of 100-150 nM to cells in serum-free media (Chellaiah et al, 2000, J. Biol. Chem., 275: 11993-12002). Osteoclasts transduced with peptides of interest and added with bone particles in the presence of TNF-α for 3-4 hours or 12-14 hours were used for lysate preparations. Cells plated on coverslips and treated with peptides were used for actin staining to detect podosomes. After transduction for 30 min., osteoclasts were re-plated on dentine slices with respective LPL peptide and TNF-α for 3-6 hours or 12-14 hours. These cells were used for Actin staining with rhodamine-phalloidin or immunostaining analyses (Chellaiah et al., 2000, J. Biol. Chem., 275: 11993-12002; Chellaiah et al., 2000, J. Cell. Biol., 148: 665-678; Chellaiah et al., 2003, J Biol Chem 278: 29086-29097).
Osteoclasts were fixed with 3% paraformaldehyde for 20 minutes and permeabilized with 0.1% Triton X-100 in PBS for 5 minutes. Subsequently, osteoclasts were stained with a primary (HA or integrin αv) and secondary antibody as described (Chellaiah et al., 2003, J Biol Chem 278: 29086-29097). Actin staining was done with rhodamine-phalloidin as described (Chellaiah et al., 2000, J. Biol. Chem., 275: 11993-12002; Chellaiah et al., 2000, J. Cell Biol., 148: 665-678). Cells were washed and mounted on a slide in a mounting solution (Vector Laboratories) and sealed with nail polish. Immunostained osteoclasts were photographed with a Bio-Rad and Nikon confocal microscope. Images were stored in TIF image format and processed by Adobe Photoshop (Adobe Systems Inc., Mountain View, Calif.).

A further assay concerns endogenous LPL. Briefly: Phosphorylation of endogenous (cellular) LPL in osteoclasts (LPL immunoprecipitation, p-Serine immunoblot). Conditions: for inhibitory effect on the phosphorylation of cellular LPL: sNT-LPL peptides, 3-4 hours; for inhibitory effect on the phosphorylation of cellular LPL / phosphorylation of endogenous LPL: bone particles and TNF-α; for phosphorylation of endogenous LPL: TAT-fused LPL peptides 150 nM, 3 hours. The assay is classed as cell-based, mouse. As to the method: Bone particles (60-80 μm in size) were prepared as described previously (Ma et at, 2010, J. Biol. Chem., 285: 29911-29924). After flushing the marrow cells for osteoclast differentiation as described above, long bones of mice (free of cells inside and muscles outside) were washed extensively with PBS and kept in ethanol until use. Long bones were air-dried in the hood and homogenized by a mini blender. Bone particles were sieved and used for experiments. Multinucleated osteoclasts were seen from day four onward. At this time cultures were added with bone particles (100 μg/ml media) for 3-4 hours or 12-14 hours in the presence of TNF-α (20 ng/ml). Some cultures were treated with 3-5 μg/ml TNFR1 antibody. Osteoclasts were preincubated with the TNFR1 antibody for 60-90 minutes before the addition of TNF-α to enhance the blocking effect. Osteoclasts incubated with bone particles for 3-4 or 12-14 hours in the presence of TNF-α were used for lysate preparations.
The vector pTAT-HA has an N-terminal 6-histidine leader (Nagahara et al., 1998, Nature Medicine, 4:1449-1452). […] For transduction with TAT-fused peptides (100-150 nM), osteoclasts were first kept in serum-free α-MEM for two hours. Afterward, TAT proteins of interest, bone particles, and TNF-α were added to cells in serum-free α-MEM Lysates were made from these cells for immunoprecipitation and immunoblotting analyses. Osteoclasts plated on dentine slices in the presence of TAT-proteins of interest and TNF-α for 3-6 hours or 12-14 hours were used for immunostaining or actin staining analyses. Osteoclast cultures treated only with TNF-α were used as controls.
Following various treatments, osteoclasts were washed three-times with cold PBS and lysed in a radioimmune precipitation buffer (RIPA; 10 mM Tris-HCl, pH 7.2, 150 mM NaCl, 1% deoxycholate, 1% Triton X-100, 0.1% SDS, 1% aprotinin, 2 mM PMSF, […], and 1% aprotinin). Cells were rocked on ice for 15 minutes and scraped off with a cell scraper. Cell lysates were centrifuged at 15,000 rpm for 5 minutes at 4° C., and the supernatant was saved. Protein contents were measured using Bio-Rad protein assay reagent. Equal amounts of lysate proteins (100-150 μg) were used for immunoprecipitations. Immunoprecipitations and Western blotting were done as described previously (Chellaiah et al., 1998, J. Biol. Chem., 273: 11908-11916; Chellaiah et al., 1996, Mol. Biol. Cell, 7: 743-753).
as §1
Following various treatments, osteoclasts were washed three times with cold PBS and lysed in a Triton-containing lysis buffer as described (Chellaiah et al., 1996, Mol. Biol. Cell, 7: 743-753). Cells were rocked on ice for 15 minutes, and scraped off with a cell scraper. Cell lysates were centrifuged at 15,000 rpm for 5 minutes, at 4° C., and the supernatant was saved. Protein contents were measured using Bio-Rad protein assay reagent. Osteoclast cultures were also subjected to a trypan blue dye (Sigma T8154) exclusion test to determine the viability of osteoclasts after various treatments. […]

“MARGSVSDEE [Peptide P1, TAT-fused small molecular weight (10aa) amino-terminal LPL peptide, unsubstituted (S5S7)]”: in the assay with osteoclasts, the formation of podosomes result is “Neither the migration (FIG. 12A-FIG. 12C) nor the formation the podosomes (FIG. 12D) was affected”. In addition, the “cellular levels of LPL” value with endogenous LPL (FIG. 8B and FIG. 13B (mouse and RAW-derived osteoclasts)) is on record as “did not change”. In the assay with endogenous LPL, the “inhibitory effect on the phosphorylation of cellular LPL” value is on record as “inhibition is significant”.
For the molecule “MARGAVADEE [Peptide P2, TAT-fused sNT-LPL peptide, Ser-5 and Ser-7 substituted to Alanine (A5A7)]”, in the assay on osteoclasts, the formation of podosomes entry is reported as “Neither the migration (FIG. 12A-FIG. 12C) nor the formation the podosomes (FIG. 12D) was affected”. Further, the “inhibitory effect on the phosphorylation of cellular LPL” value in the assay on endogenous LPL is “No significant inhibitory effect”.
In the same order, the values of “SRSGMVEEAD [Peptide P5, TAT-fused scrambled sNT-LPL peptide, control, reference compound]” are “Neither the migration (FIG. 12A-FIG. 12C) nor the formation the podosomes (FIG. 12D) was affected” and “No significant inhibitory effect”.

B1: FL-LPL: HA-TAT fused full-length L-plastin protein (70-75 kDa), purified from bacterial expression vector pTAT-HA (protein, UniProt P13796 1-627, looked up)
chain: MARGSVSDEEMMELREAFAKVDTDGNGYISFNELNDLFKAACLPLPGYRVREITENLMATGDLDQDGRISFDEFIKIFHGLKSTDVAKTFRKAINKKEGICAIGGTSEQSSVGTQHSYSEEEKYAFVNWINKALENDPDCRHVIPMNPNTNDLFNAVGDGIVLCKMINLSVPDTIDERTINKKKLTPFTIQENLNLALNSASAIGCHVVNIGAEDLKEGKPYLVLGLLWQVIKIGLFADIELSRNEALIALLREGESLEDLMKLSPEELLLRWANYHLENAGCNKIGNFSTDIKDSKAYYHLLEQVAPKGDEEGVPAVVIDMSGLREKDDIQRAECMLQQAERLGCRQFVTATDVVRGNPKLNLAFIANLFNRYPALHKPENQDIDWGALEGETREERTFRNWMNSLGVNPRVNHLYSDLSDALVIFQLYEKIKVPVDWNRVNKPPYPKLGGNMKKLENCNYAVELGKNQAKFSLVGIGGQDLNEGNRTLTLALIWQLMRRYTLNILEEIGGGQKVNDDIIVNWVNETLREAKKSSSISSFKDPKISTSLPVLDLIDAIQPGSINYDLLKTENLNDDEKLNNAKYAISMARKIGARVYALPEDLVEVNPKMVMTVFACLMGKGMKRV
modifications: full-length HA-TAT tag
notes: HA-TAT fused full-length L-plastin protein (70-75 kDa), purified from bacterial expression vector pTAT-HA
For B1, in the assay with osteoclasts, the “actin modulation involved in podosome assembly/disassembly” value was “does not affect”. In addition, the “phosphorylation of endogenous LPL” value with endogenous LPL is “basal level phosphorylation”.

B2: mutated FL-LPL: TAT-fused full-length L-plastin with Ser-5 and Ser-7 mutated to Ala-5 and Ala-7 (protein, UniProt P13796 1-627, looked up, variant S5A S7A)
chain: MARGAVADEEMMELREAFAKVDTDGNGYISFNELNDLFKAACLPLPGYRVREITENLMATGDLDQDGRISFDEFIKIFHGLKSTDVAKTFRKAINKKEGICAIGGTSEQSSVGTQHSYSEEEKYAFVNWINKALENDPDCRHVIPMNPNTNDLFNAVGDGIVLCKMINLSVPDTIDERTINKKKLTPFTIQENLNLALNSASAIGCHVVNIGAEDLKEGKPYLVLGLLWQVIKIGLFADIELSRNEALIALLREGESLEDLMKLSPEELLLRWANYHLENAGCNKIGNFSTDIKDSKAYYHLLEQVAPKGDEEGVPAVVIDMSGLREKDDIQRAECMLQQAERLGCRQFVTATDVVRGNPKLNLAFIANLFNRYPALHKPENQDIDWGALEGETREERTFRNWMNSLGVNPRVNHLYSDLSDALVIFQLYEKIKVPVDWNRVNKPPYPKLGGNMKKLENCNYAVELGKNQAKFSLVGIGGQDLNEGNRTLTLALIWQLMRRYTLNILEEIGGGQKVNDDIIVNWVNETLREAKKSSSISSFKDPKISTSLPVLDLIDAIQPGSINYDLLKTENLNDDEKLNNAKYAISMARKIGARVYALPEDLVEVNPKMVMTVFACLMGKGMKRV
modifications: full-length HA-TAT tag
For B2, in the assay with osteoclasts, the “actin modulation involved in podosome assembly/disassembly” value was “does not affect”. The “phosphorylation of endogenous LPL” value with endogenous LPL is reported as “basal level phosphorylation”.
